Data published in the NIST ThermoML archive (doi:10.1016/j.jct.2014.05.020).

Assay: excess molar enthalpy (molar enthalpy of mixing); xn = mol fraction of the nth substance listed
Conditions: Flow calorimetry

C1CCCCC1 [cyclohexane] + c1ccccc1
Conditions	excess molar enthalpy [kcal/mol]
423.2 K, 25000 kPa, Liquid, x2 = 0.829	0.0735
423.2 K, 25000 kPa, Liquid, x2 = 0.8729	0.0576
423.2 K, 25000 kPa, Liquid, x2 = 0.916	0.0394
423.2 K, 25000 kPa, Liquid, x2 = 0.9584	0.0193
473.2 K, 5000 kPa, Liquid, x2 = 0.1189	0.0453
473.2 K, 5000 kPa, Liquid, x2 = 0.1765	0.0633
473.2 K, 5000 kPa, Liquid, x2 = 0.233	0.0777
473.2 K, 5000 kPa, Liquid, x2 = 0.3424	0.0989
473.2 K, 5000 kPa, Liquid, x2 = 0.4475	0.11
473.2 K, 5000 kPa, Liquid, x2 = 0.5485	0.111
473.2 K, 5000 kPa, Liquid, x2 = 0.6457	0.103
473.2 K, 5000 kPa, Liquid, x2 = 0.7392	0.0873
473.2 K, 5000 kPa, Liquid, x2 = 0.8293	0.0633
473.2 K, 5000 kPa, Liquid, x2 = 0.8732	0.0486
473.2 K, 5000 kPa, Liquid, x2 = 0.9162	0.0332
473.2 K, 5000 kPa, Liquid, x2 = 0.9585	0.0184
473.2 K, 15000 kPa, Liquid, x2 = 0.1188	0.0434
473.2 K, 15000 kPa, Liquid, x2 = 0.1763	0.0605
473.2 K, 15000 kPa, Liquid, x2 = 0.2327	0.075
473.2 K, 15000 kPa, Liquid, x2 = 0.3421	0.0956
473.2 K, 15000 kPa, Liquid, x2 = 0.4471	0.106
473.2 K, 15000 kPa, Liquid, x2 = 0.5482	0.107
473.2 K, 15000 kPa, Liquid, x2 = 0.6454	0.1
473.2 K, 15000 kPa, Liquid, x2 = 0.7389	0.0848
473.2 K, 15000 kPa, Liquid, x2 = 0.8291	0.0615
473.2 K, 15000 kPa, Liquid, x2 = 0.873	0.047
473.2 K, 15000 kPa, Liquid, x2 = 0.9161	0.0316
473.2 K, 15000 kPa, Liquid, x2 = 0.9584	0.0173
473.2 K, 25000 kPa, Liquid, x2 = 0.1187	0.042
473.2 K, 25000 kPa, Liquid, x2 = 0.1762	0.0588
473.2 K, 25000 kPa, Liquid, x2 = 0.2325	0.0729
473.2 K, 25000 kPa, Liquid, x2 = 0.3418	0.0929
473.2 K, 25000 kPa, Liquid, x2 = 0.4469	0.103
473.2 K, 25000 kPa, Liquid, x2 = 0.5479	0.104
473.2 K, 25000 kPa, Liquid, x2 = 0.6451	0.0968
473.2 K, 25000 kPa, Liquid, x2 = 0.7388	0.0815
473.2 K, 25000 kPa, Liquid, x2 = 0.829	0.0584
473.2 K, 25000 kPa, Liquid, x2 = 0.8729	0.0442
473.2 K, 25000 kPa, Liquid, x2 = 0.916	0.0288
473.2 K, 25000 kPa, Liquid, x2 = 0.9584	0.0149
498.2 K, 5000 kPa, Liquid, x2 = 0.1189	0.0447
498.2 K, 5000 kPa, Liquid, x2 = 0.1765	0.0625
498.2 K, 5000 kPa, Liquid, x2 = 0.233	0.0774
498.2 K, 5000 kPa, Liquid, x2 = 0.3424	0.0984
498.2 K, 5000 kPa, Liquid, x2 = 0.4475	0.109
498.2 K, 5000 kPa, Liquid, x2 = 0.5485	0.11
498.2 K, 5000 kPa, Liquid, x2 = 0.6457	0.102
498.2 K, 5000 kPa, Liquid, x2 = 0.7392	0.0863
498.2 K, 5000 kPa, Liquid, x2 = 0.8293	0.0618
498.2 K, 5000 kPa, Liquid, x2 = 0.8732	0.0465
498.2 K, 5000 kPa, Liquid, x2 = 0.9162	0.0295
498.2 K, 15000 kPa, Liquid, x2 = 0.1188	0.0418
498.2 K, 15000 kPa, Liquid, x2 = 0.1763	0.0582
498.2 K, 15000 kPa, Liquid, x2 = 0.2327	0.0716
498.2 K, 15000 kPa, Liquid, x2 = 0.3421	0.091
498.2 K, 15000 kPa, Liquid, x2 = 0.4471	0.101
498.2 K, 15000 kPa, Liquid, x2 = 0.5482	0.102
498.2 K, 15000 kPa, Liquid, x2 = 0.6454	0.0943
498.2 K, 15000 kPa, Liquid, x2 = 0.7389	0.0791
498.2 K, 15000 kPa, Liquid, x2 = 0.8291	0.0565
498.2 K, 15000 kPa, Liquid, x2 = 0.873	0.042
498.2 K, 15000 kPa, Liquid, x2 = 0.9161	0.0262
523.2 K, 5000 kPa, Liquid, x2 = 0.1189	0.0458
523.2 K, 5000 kPa, Liquid, x2 = 0.1765	0.0644
523.2 K, 5000 kPa, Liquid, x2 = 0.233	0.0798
523.2 K, 5000 kPa, Liquid, x2 = 0.3424	0.101
523.2 K, 5000 kPa, Liquid, x2 = 0.4475	0.112
523.2 K, 5000 kPa, Liquid, x2 = 0.5485	0.114
523.2 K, 5000 kPa, Liquid, x2 = 0.6457	0.105
523.2 K, 5000 kPa, Liquid, x2 = 0.7392	0.0877
523.2 K, 5000 kPa, Liquid, x2 = 0.8293	0.0619
523.2 K, 5000 kPa, Liquid, x2 = 0.8732	0.0463
523.2 K, 5000 kPa, Liquid, x2 = 0.9162	0.0303
523.2 K, 5000 kPa, Liquid, x2 = 0.9585	0.0173
523.2 K, 15000 kPa, Liquid, x2 = 0.1188	0.0387
523.2 K, 15000 kPa, Liquid, x2 = 0.1763	0.0539
523.2 K, 15000 kPa, Liquid, x2 = 0.2327	0.0667
523.2 K, 15000 kPa, Liquid, x2 = 0.3421	0.0855
523.2 K, 15000 kPa, Liquid, x2 = 0.4471	0.0946
523.2 K, 15000 kPa, Liquid, x2 = 0.5482	0.0951
523.2 K, 15000 kPa, Liquid, x2 = 0.6454	0.088
523.2 K, 15000 kPa, Liquid, x2 = 0.7389	0.0732
523.2 K, 15000 kPa, Liquid, x2 = 0.8291	0.0516
523.2 K, 15000 kPa, Liquid, x2 = 0.873	0.0391
523.2 K, 15000 kPa, Liquid, x2 = 0.9161	0.025
523.2 K, 15000 kPa, Liquid, x2 = 0.9584	0.0128
523.2 K, 25000 kPa, Liquid, x2 = 0.1187	0.0369
523.2 K, 25000 kPa, Liquid, x2 = 0.1762	0.0516
523.2 K, 25000 kPa, Liquid, x2 = 0.2325	0.0643
523.2 K, 25000 kPa, Liquid, x2 = 0.3418	0.0817
523.2 K, 25000 kPa, Liquid, x2 = 0.4469	0.0899
523.2 K, 25000 kPa, Liquid, x2 = 0.5479	0.0903
523.2 K, 25000 kPa, Liquid, x2 = 0.6451	0.0836
523.2 K, 25000 kPa, Liquid, x2 = 0.7388	0.0694
523.2 K, 25000 kPa, Liquid, x2 = 0.829	0.0483
523.2 K, 25000 kPa, Liquid, x2 = 0.8729	0.0367
523.2 K, 25000 kPa, Liquid, x2 = 0.916	0.0234
523.2 K, 25000 kPa, Liquid, x2 = 0.9584	0.0123
573.2 K, 15000 kPa, Fluid (supercritical or subcritical phases), x2 = 0.1188	0.0358
573.2 K, 15000 kPa, Fluid (supercritical or subcritical phases), x2 = 0.1763	0.0503
573.2 K, 15000 kPa, Fluid (supercritical or subcritical phases), x2 = 0.2327	0.0611
573.2 K, 15000 kPa, Fluid (supercritical or subcritical phases), x2 = 0.3421	0.0788
573.2 K, 15000 kPa, Fluid (supercritical or subcritical phases), x2 = 0.4471	0.088
573.2 K, 15000 kPa, Fluid (supercritical or subcritical phases), x2 = 0.5482	0.0891
573.2 K, 15000 kPa, Fluid (supercritical or subcritical phases), x2 = 0.6454	0.0821
573.2 K, 15000 kPa, Fluid (supercritical or subcritical phases), x2 = 0.7389	0.0687
573.2 K, 15000 kPa, Fluid (supercritical or subcritical phases), x2 = 0.8291	0.0493
573.2 K, 15000 kPa, Fluid (supercritical or subcritical phases), x2 = 0.873	0.0361
573.2 K, 15000 kPa, Fluid (supercritical or subcritical phases), x2 = 0.9161	0.025
573.2 K, 15000 kPa, Fluid (supercritical or subcritical phases), x2 = 0.9584	0.012
573.2 K, 25000 kPa, Fluid (supercritical or subcritical phases), x2 = 0.1187	0.0333
573.2 K, 25000 kPa, Fluid (supercritical or subcritical phases), x2 = 0.1762	0.0474
573.2 K, 25000 kPa, Fluid (supercritical or subcritical phases), x2 = 0.2325	0.0572
573.2 K, 25000 kPa, Fluid (supercritical or subcritical phases), x2 = 0.3418	0.0738
573.2 K, 25000 kPa, Fluid (supercritical or subcritical phases), x2 = 0.4469	0.0825
573.2 K, 25000 kPa, Fluid (supercritical or subcritical phases), x2 = 0.5479	0.0834
573.2 K, 25000 kPa, Fluid (supercritical or subcritical phases), x2 = 0.6451	0.0767
573.2 K, 25000 kPa, Fluid (supercritical or subcritical phases), x2 = 0.7388	0.0641
573.2 K, 25000 kPa, Fluid (supercritical or subcritical phases), x2 = 0.829	0.045
573.2 K, 25000 kPa, Fluid (supercritical or subcritical phases), x2 = 0.8729	0.0332
573.2 K, 25000 kPa, Fluid (supercritical or subcritical phases), x2 = 0.916	0.02
573.2 K, 25000 kPa, Fluid (supercritical or subcritical phases), x2 = 0.9584	0.00954
